Data published in PMC6422671 (British Journal of Clinical Pharmacology, 2019).

Assay: Clinical laboratory findings: haematology; data mean (standard deviation)
Type: in vivo, healthy men
Source text: Data are mean (standard deviation).

For `C[C@@H](N)c1cc(Cl)ccc1Cn1c(=S)[nH]c(=O)c2[nH]ccc21` [AZD4831], the Basophils (5 mg fasted, 24 h) was 0.03 (0.01) 10^9 L^–1, the Eosinophils (5 mg fasted, 24 h) was 0.25 (0.12) 10^9 L^–1 and the “Erythrocyte MCH” value (5 mg fasted, 24 h) was 29.8 (1.2) pg. For the same compound, the “Erythrocyte MCH concentration” value (5 mg fasted, 24 h) was 340 (5) g L^–1, the “Erythrocyte MCV” value (5 mg fasted, 24 h) was 87.5 (3.3) fL and the Erythrocytes (5 mg fasted, 24 h) was 4.90 (0.28) 10^12 L^–1. The Haematocrit (5 mg fasted, 24 h) was 0.43 (0.02) ratio, the Haemoglobin (5 mg fasted, 24 h) was 146 (6) g L^–1 and the Leukocytes (5 mg fasted, 24 h) was 5.43 (0.71) 10^9 L^–1. The Lymphocytes (5 mg fasted, 24 h) was 1.62 (0.37) 10^9 L^–1, the Monocytes (5 mg fasted, 24 h) was 0.37 (0.06) 10^9 L^–1 and the Neutrophils (5 mg fasted, 24 h) was 3.07 (0.47) 10^9 L^–1. For the same compound, the Platelets (5 mg fasted, 24 h) was 246 (44) 10^9 L^–1, the Reticulocytes (5 mg fasted, 24 h) was 76.9 (15.3) 10^9 L^–1 and the Basophils (5 mg fasted, 48 h) was 0.04 (0.02) 10^9 L^–1. The Eosinophils (5 mg fasted, 48 h) was 0.23 (0.10) 10^9 L^–1, the “Erythrocyte MCH” value (5 mg fasted, 48 h) was 29.6 (1.0) pg and the “Erythrocyte MCH concentration” value (5 mg fasted, 48 h) was 338 (6) g L^–1. The “Erythrocyte MCV” value (5 mg fasted, 48 h) was 87.7 (3.1) fL, the Erythrocytes (5 mg fasted, 48 h) was 4.88 (0.26) 10^12 L^–1 and the Haematocrit (5 mg fasted, 48 h) was 0.43 (0.02) ratio. The Haemoglobin (5 mg fasted, 48 h) was 145 (7) g L^–1, the Leukocytes (5 mg fasted, 48 h) was 5.74 (1.20) 10^9 L^–1 and the Lymphocytes (5 mg fasted, 48 h) was 1.60 (0.38) 10^9 L^–1. The Monocytes (5 mg fasted, 48 h) was 0.38 (0.06) 10^9 L^–1, the Neutrophils (5 mg fasted, 48 h) was 3.38 (1.02) 10^9 L^–1 and the Platelets (5 mg fasted, 48 h) was 240 (50) 10^9 L^–1. For the same compound, the Reticulocytes (5 mg fasted, 48 h) was 84.4 (20.3) 10^9 L^–1, the Basophils (5 mg fasted, follow up) was 0.04 (0.01) 10^9 L^–1 and the Eosinophils (5 mg fasted, follow up) was 0.26 (0.12) 10^9 L^–1. For the same compound, the “Erythrocyte MCH” value (5 mg fasted, follow up) was 29.5 (1.1) pg, the “Erythrocyte MCH concentration” value (5 mg fasted, follow up) was 334 (5) g L^–1 and the “Erythrocyte MCV” value (5 mg fasted, follow up) was 88.2 (3.1) fL. For the same compound, the Erythrocytes (5 mg fasted, follow up) was 4.98 (0.36) 10^12 L^–1, the Haematocrit (5 mg fasted, follow up) was 0.44 (0.02) ratio and the Haemoglobin (5 mg fasted, follow up) was 147 (8) g L^–1. For the same compound, the Leukocytes (5 mg fasted, follow up) was 5.94 (1.03) 10^9 L^–1, the Lymphocytes (5 mg fasted, follow up) was 1.47 (0.34) 10^9 L^–1 and the Monocytes (5 mg fasted, follow up) was 0.45 (0.15) 10^9 L^–1. For the same compound, the Neutrophils (5 mg fasted, follow up) was 3.59 (0.73) 10^9 L^–1, the Platelets (5 mg fasted, follow up) was 249 (38) 10^9 L^–1 and the Reticulocytes (5 mg fasted, follow up) was 91.6 (15.7) 10^9 L^–1. For the same compound, the Basophils (15 mg fasted, 24 h) was 0.04 (0.01) 10^9 L^–1, the Eosinophils (15 mg fasted, 24 h) was 0.21 (0.07) 10^9 L^–1 and the “Erythrocyte MCH” value (15 mg fasted, 24 h) was 29.6 (0.7) pg. The “Erythrocyte MCH concentration” value (15 mg fasted, 24 h) was 341 (2) g L^–1, the “Erythrocyte MCV” value (15 mg fasted, 24 h) was 86.8 (2.0) fL and the Erythrocytes (15 mg fasted, 24 h) was 5.08 (0.27) 10^12 L^–1. For the same compound, the Haematocrit (15 mg fasted, 24 h) was 0.44 (0.03) ratio, the Haemoglobin (15 mg fasted, 24 h) was 150 (9) g L^–1 and the Leukocytes (15 mg fasted, 24 h) was 5.94 (1.90) 10^9 L^–1. For the same compound, the Lymphocytes (15 mg fasted, 24 h) was 1.75 (0.55) 10^9 L^–1, the Monocytes (15 mg fasted, 24 h) was 0.46 (0.17) 10^9 L^–1 and the Neutrophils (15 mg fasted, 24 h) was 3.37 (1.36) 10^9 L^–1. The Platelets (15 mg fasted, 24 h) was 193 (28) 10^9 L^–1, the Reticulocytes (15 mg fasted, 24 h) was 77.2 (18.6) 10^9 L^–1 and the Basophils (15 mg fasted, 48 h) was 0.04 (0.01) 10^9 L^–1. For the same compound, the Eosinophils (15 mg fasted, 48 h) was 0.22 (0.07) 10^9 L^–1, the “Erythrocyte MCH” value (15 mg fasted, 48 h) was 29.5 (1.1) pg and the “Erythrocyte MCH concentration” value (15 mg fasted, 48 h) was 340 (7) g L^–1. The “Erythrocyte MCV” value (15 mg fasted, 48 h) was 86.9 (2.9) fL, the Erythrocytes (15 mg fasted, 48 h) was 5.03 (0.23) 10^12 L^–1 and the Haematocrit (15 mg fasted, 48 h) was 0.44 (0.02) ratio. For the same compound, the Haemoglobin (15 mg fasted, 48 h) was 148 (8) g L^–1, the Leukocytes (15 mg fasted, 48 h) was 6.08 (1.88) 10^9 L^–1 and the Lymphocytes (15 mg fasted, 48 h) was 1.71 (0.49) 10^9 L^–1. For the same compound, the Monocytes (15 mg fasted, 48 h) was 0.52 (0.21) 10^9 L^–1, the Neutrophils (15 mg fasted, 48 h) was 3.47 (1.39) 10^9 L^–1 and the Platelets (15 mg fasted, 48 h) was 204 (25) 10^9 L^–1. The Reticulocytes (15 mg fasted, 48 h) was 78.1 (24.5) 10^9 L^–1, the Basophils (15 mg fasted, follow up) was 0.04 (0.02) 10^9 L^–1 and the Eosinophils (15 mg fasted, follow up) was 0.22 (0.08) 10^9 L^–1. The “Erythrocyte MCH” value (15 mg fasted, follow up) was 29.1 (1.0) pg, the “Erythrocyte MCH concentration” value (15 mg fasted, follow up) was 334 (2) g L^–1 and the “Erythrocyte MCV” value (15 mg fasted, follow up) was 87.3 (2.5) fL. The Erythrocytes (15 mg fasted, follow up) was 5.06 (0.37) 10^12 L^–1, the Haematocrit (15 mg fasted, follow up) was 0.44 (0.03) ratio and the Haemoglobin (15 mg fasted, follow up) was 147 (10) g L^–1. The Leukocytes (15 mg fasted, follow up) was 5.81 (1.43) 10^9 L^–1, the Lymphocytes (15 mg fasted, follow up) was 1.63 (0.38) 10^9 L^–1 and the Monocytes (15 mg fasted, follow up) was 0.49 (0.07) 10^9 L^–1. The Neutrophils (15 mg fasted, follow up) was 3.32 (1.20) 10^9 L^–1, the Platelets (15 mg fasted, follow up) was 221 (33) 10^9 L^–1 and the Reticulocytes (15 mg fasted, follow up) was 89.9 (32.9) 10^9 L^–1. The Basophils (45 mg fasted, 24 h) was 0.04 (0.02) 10^9 L^–1, the Eosinophils (45 mg fasted, 24 h) was 0.20 (0.12) 10^9 L^–1 and the “Erythrocyte MCH” value (45 mg fasted, 24 h) was 28.4 (2.1) pg. The “Erythrocyte MCH concentration” value (45 mg fasted, 24 h) was 335 (8) g L^–1, the “Erythrocyte MCV” value (45 mg fasted, 24 h) was 84.8 (5.8) fL and the Erythrocytes (45 mg fasted, 24 h) was 5.01 (0.18) 10^12 L^–1. The Haematocrit (45 mg fasted, 24 h) was 0.42 (0.03) ratio, the Haemoglobin (45 mg fasted, 24 h) was 142 (9) g L^–1 and the Leukocytes (45 mg fasted, 24 h) was 5.28 (1.15) 10^9 L^–1. For the same compound, the Lymphocytes (45 mg fasted, 24 h) was 1.74 (0.42) 10^9 L^–1, the Monocytes (45 mg fasted, 24 h) was 0.37 (0.13) 10^9 L^–1 and the Neutrophils (45 mg fasted, 24 h) was 2.83 (0.90) 10^9 L^–1. The Platelets (45 mg fasted, 24 h) was 220 (39) 10^9 L^–1, the Reticulocytes (45 mg fasted, 24 h) was 69.8 (16.4) 10^9 L^–1 and the Basophils (45 mg fasted, 48 h) was 0.04 (0.02) 10^9 L^–1. For the same compound, the Eosinophils (45 mg fasted, 48 h) was 0.21 (0.10) 10^9 L^–1, the “Erythrocyte MCH” value (45 mg fasted, 48 h) was 28.4 (2.3) pg and the “Erythrocyte MCH concentration” value (45 mg fasted, 48 h) was 335 (15) g L^–1. The “Erythrocyte MCV” value (45 mg fasted, 48 h) was 84.9 (5.9) fL, the Erythrocytes (45 mg fasted, 48 h) was 5.02 (0.33) 10^12 L^–1 and the Haematocrit (45 mg fasted, 48 h) was 0.43 (0.03) ratio. The Haemoglobin (45 mg fasted, 48 h) was 142 (8) g L^–1, the Leukocytes (45 mg fasted, 48 h) was 5.69 (1.06) 10^9 L^–1 and the Lymphocytes (45 mg fasted, 48 h) was 1.79 (0.36) 10^9 L^–1. For the same compound, the Monocytes (45 mg fasted, 48 h) was 0.38 (0.10) 10^9 L^–1, the Neutrophils (45 mg fasted, 48 h) was 3.16 (0.95) 10^9 L^–1 and the Platelets (45 mg fasted, 48 h) was 222 (44) 10^9 L^–1. For the same compound, the Reticulocytes (45 mg fasted, 48 h) was 77.3 (19.5) 10^9 L^–1, the Basophils (45 mg fasted, follow up) was 0.05 (0.02) 10^9 L^–1 and the Eosinophils (45 mg fasted, follow up) was 0.20 (0.15) 10^9 L^–1. The “Erythrocyte MCH” value (45 mg fasted, follow up) was 28.3 (2.3) pg, the “Erythrocyte MCH concentration” value (45 mg fasted, follow up) was 333 (10) g L^–1 and the “Erythrocyte MCV” value (45 mg fasted, follow up) was 85.0 (5.8) fL. For the same compound, the Erythrocytes (45 mg fasted, follow up) was 5.08 (0.35) 10^12 L^–1, the Haematocrit (45 mg fasted, follow up) was 0.43 (0.02) ratio and the Haemoglobin (45 mg fasted, follow up) was 143 (7) g L^–1. For the same compound, the Leukocytes (45 mg fasted, follow up) was 5.88 (1.09) 10^9 L^–1, the Lymphocytes (45 mg fasted, follow up) was 1.61 (0.45) 10^9 L^–1 and the Monocytes (45 mg fasted, follow up) was 0.45 (0.13) 10^9 L^–1. For the same compound, the Neutrophils (45 mg fasted, follow up) was 3.45 (1.25) 10^9 L^–1, the Platelets (45 mg fasted, follow up) was 245 (38) 10^9 L^–1 and the Reticulocytes (45 mg fasted, follow up) was 79.1 (19.3) 10^9 L^–1.
